From article PMC10611828 (European Journal of Nuclear Medicine and Molecular Imaging, 2023)

Assays:
[1] = parameters: method as in PMID 35027371, PMID 28644732; details: compared with RM2; cited from earlier work
[2] = Stability in PBS at 37 °C (radio-HPLC); assay type: physicochemical
Procedure: (§1) The ^177Lu-labeled peptides were incubated in 300-μL phosphate buffered saline (PBS; Gibco, ThermoFisher, The Netherlands) at 37 °C, and their stability was verified after 1, 4, 24, 48, and 72 h by radio-HPLC (Supplementary Fig. 2). The stability in serum was determined by incubating the radiolabeled compounds into 300 μL of mouse serum (Invitrogen, USA) or human serum (Sigma Aldrich, USA) at 37 °C (Supplementary Fig. 3, 4). At each time point post-incubation, 35 μL of the mixture was added to an Eppendorf tube, and the proteins were precipitated by adding an equal volume of acetonitrile. The tubes were centrifuged at 16,000 rpm, 4 °C for 20 min, and the stability was monitored by radio-HPLC, expressed as the RCP at the different time points.

[3] = Stability in mouse serum at 37 °C (radio-HPLC); assay type: in vitro ADME; details: 0 h
Procedure: as §1

[4] = Stability in human serum at 37 °C (radio-HPLC); assay type: in vitro ADME; details: 0 h
Procedure: as §1

[5] = tested on: PC-3 cells; assay: Uptake and specificity in PC-3 cells; assay type: cell-based, human; details: 1 h 37 °C
Procedure: PC-3 cells were seeded at 2.5 × 10^5 cells/well into 12 well plates 18–24 h prior to the experiment. […] Hereafter, cells were washed twice with PBS and subsequently lysed with 0.1 M NaOH for 20 min at room temperature (RT). The cell lysates were collected and measured using a gamma counter (1480 WIZARD automatic γ-counter, PerkinElmer, The Netherlands). […] Hereafter, cells were washed twice with cold PBS and lysed with 0.1 M NaOH for 20 min at RT. The cell lysates were collected and measured to determine the amount of radioactivity in a gamma counter. To correct for cell density, cells from two separate wells were counted (Countess counter, Invitrogen, The Netherlands), and data was expressed as percentage of added dose (AD) per 2.5 × 10^5 cells.

[6] = parameters: method as in PMID 31482426; details: all patients; cited from earlier work

Row | SMILES | lipophilicity (structure and LogD) [1] | intact radiolabeled ligand (RCP) ([2]; 0 h) [%] | intact radiolabeled ligand (RCP) ([2]; 1 h) [%] | intact radiolabeled ligand (RCP) ([2]; 4 h) [%] | intact radiolabeled ligand (RCP) ([2]; 24 h) [%] | intact radiolabeled ligand (RCP) ([2]; 48 h) [%] | intact radiolabeled ligand (RCP) ([2]; 72 h) [%] | intact radiolabeled ligand (RCP) [3] [%] | intact radiolabeled ligand (RCP) [4] [%] | uptake in the presence of Tyr^4-BBN ([5]; 10^-9 M + 10^-6 M Tyr^4-BBN) [% AD] | uptake ([5]; 10^-9 M, per 2.5 × 10^5 cells) [% AD] | tolerability in patients [6]
1 | CC(C)CC(CC(C)C)NC(=O)[C@H](Cc1cnc[nH]1)NC(=O)CNC(=O)[C@@H](NC(=O)[C@H](C)NC(=O)[C@H](Cc1c[nH]c2ccccc12)NC(=O)[C@H](CCC(N)=O)NC(=O)[C@@H](Cc1ccccc1)NC(=O)COCC(=O)Nc1ccc(CNC(=O)CN2CCN(CC(=O)O)CCN(CC(=O)O)CCN(CC(=O)O)CC2)cc1)C(C)C [NeoB, DOTA-pADA-D-Phe-Gln-Trp-Ala-Val-Gly-His-NH-CH[CH2-CH(CH3)2]2] | more lipophilic | – | – | – | – | – | – | – | – | – | – | –
2 | CC(C)C[C@H](NC(=O)C[C@H](O)[C@H](CC(C)C)NC(=O)[C@H](Cc1c[nH]cn1)NC(=O)CNC(=O)[C@@H](NC(=O)[C@H](C)NC(=O)[C@H](Cc1c[nH]c2ccccc12)NC(=O)[C@H](CCC(N)=O)NC(=O)[C@@H](Cc1ccccc1)NC(=O)CN1CCC(NC(=O)CN2CCN(CC(=O)O)CCN(CC(=O)O)CCN(CC(=O)O)CC2)CC1)C(C)C)C(N)=O [[^177Lu]Lu-RM2] [metal not drawn] | – | 97.4 ± 0.3 | 97.8 ± 0.4 | 96.7 ± 0.5 | 95.6 ± 0.3 | 87.6 ± 0.6 | 80.4 ± 0.8 | 97.4 ± 0.3 | 97.4 ± 0.3 | < 1 | 10.96 ± 3.46 | well tolerated
